{
  "source": "patent US5023254A",
  "about": "“Aminoalkylindoles, their production, and pharmaceutical preparations based thereon” (Schering Aktiengesellschaft, priority 1988, dated 1991)",
  "key": {"mouse uterus [1]": {"system": "mouse uterus", "experiment": "Uterotrophic test on infantile mouse (estrogen activity)", "assay_type": "in vivo", "parameters": "unit not given here", "source_text": "(§1) This test is fully described in Cancer Treatment Reviews 1984, 11, 147, and J.Med.Chem., 1984, 27, 1439."}, "estrogen receptor": {"biological_target": "T1, estrogen receptor (Bos taurus, UniProt P49884)", "T1 construct": "estrogen receptor from calf uterus; from tissue; host or cells: calf uterus", "T1 sequence (P49884 1-596)": "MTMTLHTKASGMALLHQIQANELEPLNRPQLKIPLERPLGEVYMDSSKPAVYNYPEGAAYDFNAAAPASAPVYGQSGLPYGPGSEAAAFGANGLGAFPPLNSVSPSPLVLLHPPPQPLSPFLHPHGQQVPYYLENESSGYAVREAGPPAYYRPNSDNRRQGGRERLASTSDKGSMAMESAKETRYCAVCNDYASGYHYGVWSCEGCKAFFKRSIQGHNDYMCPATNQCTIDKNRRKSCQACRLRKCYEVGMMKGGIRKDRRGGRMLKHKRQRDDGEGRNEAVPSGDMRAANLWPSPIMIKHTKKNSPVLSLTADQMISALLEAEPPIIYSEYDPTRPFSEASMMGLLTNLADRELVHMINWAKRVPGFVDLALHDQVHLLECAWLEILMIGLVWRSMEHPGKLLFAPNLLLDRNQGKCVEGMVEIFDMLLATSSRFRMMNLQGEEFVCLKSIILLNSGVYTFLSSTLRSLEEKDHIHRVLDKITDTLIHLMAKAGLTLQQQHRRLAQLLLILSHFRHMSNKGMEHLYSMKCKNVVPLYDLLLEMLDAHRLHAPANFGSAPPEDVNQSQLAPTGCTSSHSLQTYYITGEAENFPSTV", "experiment": "relative binding affinity (RBA) for the estrogen receptor from calf uterus, displacement of 3H-17β estradiol", "details": "for affinity for the estrogen receptor (in words): in comparison with estradiol; for RBA (relative binding affinity for the estrogen receptor): calf uterus, relative to 17 beta estradiol = 100", "text": "*Relative binding affinities for the estrogen receptor from calf uterus,"}, "mouse uterus [2]": {"system": "mouse uterus", "experiment": "Antiuterotrophic test on infantile mouse (anti-estrogen activity)", "assay_type": "in vivo", "parameters": "Antiuterotrophic Test Rel. uterus wgt / Antiuterotrophic Test Action (rel. uterus wgt): unit not given here", "details": "for inhibition in vivo at 0.125 mg: Mus musculus; for inhibition in vivo at 0.125 mg / inhibition in vivo at 0.005 mg / inhibition in vivo at 0.025 mg: read-out: Antiuterotrophic Test Inhib. (%); for Antiuterotrophic Test Rel. uterus wgt / inhibition in vivo at 0.005 mg / inhibition in vivo at 0.025 mg: infantile mouse; for inhibition in vivo at 0.005 mg: dose 5 ug (per animal); for inhibition in vivo at 0.025 mg: dose 25 ug (per animal)", "source_text": "as §1"}, "[3]": {"system": "human MCF-7 breast cancer cells", "experiment": "growth of hormone-dependent human MCF-7 breast cancer cells, cell count", "assay_type": "cell-based", "details": "Homo sapiens, MCF7, read-out: Cell Count (% T/C)", "source_text": "The test protocol for the research is fully described in Eur.J. Cancer Clin. Oncol."}},
  "note": "Where “and” joins values, the source holds several entries; their conditions need not be identical. Equal values may be shown once.",
  "data": [
    {"smiles": "Cc1c(-c2ccc(O)cc2)n(CCCCCCN)c2ccc(O)cc12", "note": "[Compound 2, 5-Hydroxy-2-(4-hydroxyphenyl)-3-methyl-1-[6-amino-hexyl]-indole]", "values": [
      {"measurement": "Uterotrophic Test Rel. uterus wgt", "setting": "mouse uterus [1]; dose 1 ug", "value": "10.9 ± 4.7"},
      {"measurement": "Uterotrophic Test Rel. uterus wgt", "setting": "mouse uterus [1]; dose 5 ug", "value": "12.0 ± 2.2"},
      {"measurement": "Uterotrophic Test Rel. uterus wgt", "setting": "mouse uterus [1]; dose 25 ug", "value": "12.4 ± 2.7"},
      {"measurement": "Uterotrophic Test Rel. uterus wgt", "setting": "mouse uterus [1]; dose 125 ug", "value": "16.9 ± 2.7"},
      {"measurement": "affinity for the estrogen receptor (in words)", "setting": "estrogen receptor", "value": "greatest affinity"},
      {"measurement": "inhibition in vivo at 0.125 mg", "setting": "mouse uterus [2]", "value": 99, "unit": "%"},
      {"measurement": "Antiuterotrophic Test Rel. uterus wgt", "setting": "mouse uterus [2]; dose 5 ug", "value": "30.0 ± 9.1"},
      {"measurement": "inhibition in vivo at 0.005 mg", "setting": "mouse uterus [2]", "value": 68, "unit": "%"},
      {"measurement": "Antiuterotrophic Test Rel. uterus wgt", "setting": "mouse uterus [2]; dose 25 ug", "value": "15.1 ± 1.2"},
      {"measurement": "inhibition in vivo at 0.025 mg", "setting": "mouse uterus [2]", "value": 102, "unit": "%"},
      {"measurement": "Antiuterotrophic Test Rel. uterus wgt", "setting": "mouse uterus [2]; dose 125 ug", "value": "16.2 ± 2.7"}
    ]},
    {"smiles": "CNCCCCCCn1c(-c2ccc(O)cc2)c(C)c2cc(O)ccc21", "note": "[Compound 3, 5-Hydroxy-2-(4-hydroxyphenyl)-3-methyl-1-[6-methylamino-hexyl]-indole]", "values": [
      {"measurement": "Uterotrophic Test Rel. uterus wgt", "setting": "mouse uterus [1]; dose 1 ug", "value": "14.2 ± 3.1"},
      {"measurement": "Uterotrophic Test Rel. uterus wgt", "setting": "mouse uterus [1]; dose 5 ug", "value": "22.8 ± 8.6"},
      {"measurement": "Uterotrophic Test Rel. uterus wgt", "setting": "mouse uterus [1]; dose 125 ug", "value": "34.0 ± 6.3"},
      {"measurement": "RBA (relative binding affinity for the estrogen receptor)", "setting": "estrogen receptor", "value": 27},
      {"measurement": "affinity for the estrogen receptor (in words)", "setting": "estrogen receptor", "value": "greatest affinity"},
      {"measurement": "inhibition in vivo at 0.125 mg", "setting": "mouse uterus [2]", "value": 59, "unit": "%"},
      {"measurement": "Antiuterotrophic Test Rel. uterus wgt", "setting": "mouse uterus [2]; dose 5 ug", "value": "38.1 ± 8.2"},
      {"measurement": "inhibition in vivo at 0.005 mg", "setting": "mouse uterus [2]", "value": 49, "unit": "%"},
      {"measurement": "Antiuterotrophic Test Rel. uterus wgt", "setting": "mouse uterus [2]; dose 25 ug", "value": "41.0 ± 8.5"},
      {"measurement": "inhibition in vivo at 0.025 mg", "setting": "mouse uterus [2]", "value": 43, "unit": "%"},
      {"measurement": "Antiuterotrophic Test Rel. uterus wgt", "setting": "mouse uterus [2]; dose 125 ug", "value": "33.8 ± 2.4"}
    ]},
    {"smiles": "Cc1c(-c2ccc(O)cc2)n(CCCCCCN(C)C)c2ccc(O)cc12", "note": "[Compound 4, 5-Hydroxy-2-(4-hydroxyphenyl)-3-methyl-1-[6-dimethyamino-hexyl]-indole]", "values": [
      {"measurement": "RBA (relative binding affinity for the estrogen receptor)", "setting": "estrogen receptor", "value": 12}
    ]},
    {"smiles": "Oc1ccc(-c2cc3cc(O)ccc3n2CCCCCCN2CCCC2)cc1", "note": "[Compound 5, 5-Hydroxy-2-(4-hydroxyphenyl)-1-[6-pyrrolidino-hexyl]-indole]", "values": [
      {"measurement": "RBA (relative binding affinity for the estrogen receptor)", "setting": "estrogen receptor", "value": 2.3}
    ]},
    {"smiles": "Oc1ccc(-c2cc3cc(O)ccc3n2CCCCCCN2CCCCC2)cc1", "note": "[Compound 7, 5-Hydroxy-2-(4-hydroxyphenyl)-1-[6-piperidino-hexyl]-indole]", "values": [
      {"measurement": "RBA (relative binding affinity for the estrogen receptor)", "setting": "estrogen receptor", "value": 1.3},
      {"measurement": "affinity for the estrogen receptor (in words)", "setting": "estrogen receptor", "value": "least affinity"}
    ]},
    {"smiles": "Cc1c(-c2ccc(O)cc2)n(CCCCCCN2CCCCC2)c2ccc(O)cc12", "note": "[Compound 8, 5-Hydroxy-2-(4-hydroxyphenyl)-3-methyl-1-[6-piperidino-hexyl]-indole]", "values": [
      {"measurement": "RBA (relative binding affinity for the estrogen receptor)", "setting": "estrogen receptor", "value": 23},
      {"measurement": "affinity for the estrogen receptor (in words)", "setting": "estrogen receptor", "value": "greatest affinity"},
      {"measurement": "activity at 10 µM", "setting": "[3]; MCF-7, 1 × 10^-5 M", "value": 38, "unit": "%"},
      {"measurement": "activity at 1 µM", "setting": "[3]; MCF-7, 1 × 10^-6 M", "value": 44, "unit": "%"},
      {"measurement": "activity at 0.1 µM", "setting": "[3]; MCF-7, 1 × 10^-7 M", "value": 48, "unit": "%"}
    ]},
    {"smiles": "Cc1c(-c2ccc(O)cc2)n(CCCCCCCCN2CCCC2)c2ccc(O)cc12", "note": "[Compound 9, 5-Hydroxy-2-(4-hydroxyphenyl)-3-methyl-1-[8-pyrrolidino-octyl]-indole]", "values": [
      {"measurement": "RBA (relative binding affinity for the estrogen receptor)", "setting": "estrogen receptor", "value": 7.6}
    ]},
    {"smiles": "C[C@]12CC[C@@H]3c4ccc(O)cc4CC[C@H]3[C@@H]1CCC2=O", "note": "[Estrone, reference compound]", "values": [
      {"measurement": "Uterotrophic Test Rel. uterus wgt", "setting": "mouse uterus [1]; estrone 0.4 ug", "value": "45.8 ± 6.2 and 59.8 ± 20.0 and 53.4 ± 3.6 and 43.0 ± 7.2 and 54.2 ± 12.1"},
      {"measurement": "Antiuterotrophic Test Rel. uterus wgt", "setting": "mouse uterus [2]; estrone alone 0.4 ug", "value": "54.2 ± 12.1"}
    ]}
  ]
}
